Experimental data reported in patent publication US20250163387A1, “HUMAN PITUITARY NEUROENDOCRINE TUMOR ORGANOIDS AND METHODS OF MAKING AND USING THE SAME” (ARIZONA BOARD OF REGENTS OF THE UNIVERSITY OF ARIZONA, A …, priority 2022, published 2025).

Assays:
Type in all cases: cell-based, human
[1] = tested on: hPITOs generated from CD patients; assay: High-throughput drug screen, MTS assay; settings: 1 uM, 72 hrs
Method: Patient adenoma-derived pituitary organoids were grown in 96-well plates and treated with 147 small molecules taken from the NCI AOD9 compound library for 72 hrs. (https://dtp.cancer.gov/organization/dscb/obtaining/available_plates.html). Drugs were diluted from 10 mM DMSO stock plates into 100 uM DMSO working stocks with a final concentration of 1 uM. All vehicle controls were treated with 0.1% DMSO. Organoid proliferation was measured using CellTiter 96® AQueous One Solution Cell Proliferation Assay kit (MTS, Promega, G3582) according to the manufacturer's instruction. Organoid death was calculated based on the absorbance readings at 490 nm, collected from the MTS assay relative to the vehicle controls. Drug screens were performed with biological replicates in same screen. Drugs were selected based on their ability to target key signaling pathways and clinical relevance to the treatment. Drug sensitivity is represented by cell viability and is significant at <0.5 suppressive effect of the drugs. The percent cell viability relative to the vehicle control was calculated. Correlation coefficient across each organoid were calculated using Pearson method to assess confidence in replication. Variance Component was detected for each drug across all organoids. A random effect model was run with a single random factor for each drug and estimated variance was calculated by rejecting the null hypothesis that there isn't variation among samples. The drug responses were grouped by variance factor large (vc>100), median (100>vc>50), and small (vc<50). Heatmap was used to display the differential responses in cell viability for the drugs.
Tumor recurrence can occur in as many as 30-50% of CD patients after successful surgical treatment. Unfortunately, bilateral adrenalectomy is the chosen surgical treatment for patients with persistent CD [35]. Bilateral adrenalectomy leads to the increased risk for development of Nelson's syndrome (progressive hyperpigmentation due to ACTH secretion and expansion of the residual pituitary tumor). Although the risk of developing Nelson's syndrome following adrenalectomy can be reduced by 50% with stereotactic radiotherapy, there is a need to develop medical therapies that directly target the pituitary adenoma. Thus, we established a high-throughput drug screening assay using patient-derived pituitary organoids. […] The replicates behaved consistently with the drug response with the correlation scores of >0.8 for these samples (FIG. 3a). We estimated the variance component for each drug across all organoids. […] The drug responses were grouped by variance factor large, median, and small. The larger the variance the more variable is the drug response across the organoids. […]

hPITO39 = assay: Nuclear Morphometric Analysis (NII); settings: compared to pasireotide and ketoconazole
Method: Nuclear Morphometric Analysis (NMA) using treated organoids was performed based on a published protocol that measures cell viability based on the changes in nuclear morphology of the cells using nuclear stain Hoechst or DAPI [30]. Images of organoid nuclei were analyzed using the ImageJ Nuclear Irregularity Index (NII) plugin for key parameters that included cell area, radius ratio, area box, aspect, and roundness. Using the published spreadsheet template, the NII of each cell was calculated with the following formula: NII=Aspect−Area Box+Radius Ratio+Roundness. The area vs NII of vehicle-treated cells were plotted as a scatter plot using the template and considered as the normal cell nuclei. The same plots were generated for each condition, and the NII and area of treated cells were compared to the normal nuclei, and classified as one of the following NMA populations: Normal (N; similar area and NII), Mitotic (S; similar area, slightly higher NII), Irregular (I; similar area, high NII), Small Regular (SR; apoptotic, low area and NII), Senescent (LR; high area, low NII), Small Irregular (SI; low area, high NII), or Large Irregular (LI; high area, high NII). […] The percentage of cells in each NII classification category were calculated and plotted as a histogram using GraphPad Prism. […]

iPSC^USP48MV organoids = assay: Proliferation by EdU uptake; settings: drug alone, 500 nM
Method: (§1) Organoids were immunostained using published protocols by our laboratory. Proliferation was measured by using 5-ethynyl-2'-deoxyuridine (EdU) incorporation according to the Manufacturer's protocol (Click-IT EdU Alexa Fluor 555 Imaging Kit, Thermo Fisher Scientific C10338). Costaining was performed by blocking fixed organoids with 2% donkey serum (Jackson Immuno Research, #017-000-121) diluted in 0.01% PBST for 1 hr. at room temperature. Organoids were then incubated overnight at 4° C. with primary antibodies followed by secondary antibodies and Hoechst (Thermo Fisher Scientific H1399, 1:1000 in 0.01% PBST) for 1 hr at room temperature. Human specific primary antibodies used included: rabbit anti-ACTH (Thermo Fisher Scientific 701293, 1:250), rabbit anti-Synaptophysin (Thermo Fisher Scientific PA5-27286, 1:100), […] (Thermo Fisher Scientific PA5-98650, 1:50), rabbit anti-LH (Thermo Fisher Scientific PA5-102674, 1:100), mouse anti-FSH (Thermo Fisher Scientific MIF2709, 1:100), mouse anti-PRL (Thermo Fisher Scientific CF500720, 1:100), Alexa Flour conjugated GH (NB500-364AF647, 1:100) and mouse anti-CAM5.2 (SIGMA […]-95, 1:250). The secondary antibodies used included Alexa Fluor 488 Donkey Anti Rabbit IgG (H+L) (Thermo Fisher Scientific A21206, 1:100) or Alexa Fluor 647 Donkey Anti Mouse IgG (H+L) (Thermo Fisher Scientific A31571, 1:100). Organoids were visualized and images acquired by confocal microscopy using the Nikon CrestV2 Spinning Disk. Fluorescence intensity and percentage of EdU positive cells of total cells, were calculated using Nikon Elements Software (Version 5.21.05).

iPSC^ctrl organoids = assay: Proliferation by EdU uptake; settings: drug alone, 500 nM
Method: as §1

Structure (SMILES): CC#C[C@]1(O)CC[C@H]2[C@@H]3CCC4=CC(=O)CCC4=C3[C@@H](c3ccc(N(C)C)cc3)C[C@@]21C [Mifepristone]
- response of the adenoma cells within the organoids ([1]; hPITO7, 10 and 25): ~0%
- response of the adenoma cells within the organoids ([1]; hPITO34 and hPITO35): 50%
- Apoptosis by nuclear morphometric analysis (hPITO39): induced significant apoptosis
- cell proliferation (EdU uptake) (iPSC^USP48MV organoids): significant increase
- cell proliferation (EdU uptake) (iPSC^ctrl organoids): significant increase
